Source: PMC6264262, “Synthesis and Antimalarial Activity of Novel Dihydro-Artemisinin Derivatives” (Molecules, 2011)

Target: T1, P. falciparum falcipain-2 (Plasmodium falciparum, UniProt Q8I6U4)
T1 construct: Recombinant falcipain-2 (30 nM) was incubated for 30 min at room temperature
T1 sequence (Q8I6U4 244-484): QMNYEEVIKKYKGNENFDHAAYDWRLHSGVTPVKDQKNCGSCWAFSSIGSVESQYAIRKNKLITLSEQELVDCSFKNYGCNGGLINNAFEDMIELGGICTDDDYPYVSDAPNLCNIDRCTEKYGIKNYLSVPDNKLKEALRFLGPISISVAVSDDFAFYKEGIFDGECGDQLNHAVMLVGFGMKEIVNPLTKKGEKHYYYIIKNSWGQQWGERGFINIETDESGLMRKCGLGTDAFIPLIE
Assay: in vitro falcipain-2 inhibition assay (fluorogenic substrate Z-Leu-Arg-AMC)
Type: biochemical
Conditions: recombinant falcipain-2 30 nM, pH 5.5, substrate Z-Leu-Arg-AMC 25 μM; for Inhibition rate: at 10 μM concentration level; for IC50: 30 min preincubation, determined if inhibition rate larger than 20% at 10 μM
Method: The in vitro P. falciparum falcipain-2 inhibition assay against was carried out according to a previously reported method by taking N-(L-3-trans-carboxyoxiran-2-carbonyl)-L-leucyl)-amido(4-guanido)butane (E-64) as a positive control and DMSO as a negative control. Falcipain-2 could hydrolyse the fluorogenic substrate benzyloxycarbonyl-Leu-Arg-7-amino-4-methylcoumarin (Z-Leu-Arg-AMC) to produce coumarin and its activity could be evaluated by monitoring the fluorescence of the coumarin.
Recombinant falcipain-2 (30 nM) was incubated for 30 min at room temperature in 100 mM NaOAc, pH 5.5, 10 mM dithiothreitol (DTT), with different concentrations of 10a-l and 12a-f. These solutions were prepared from stock in DMSO (maximum concentration of DMSO in the assay was 1%). After incubation, the substrate Z-Leu-Arg-AMC with the same buffer was added to a final concentration of 25 μM. The increase in fluorescence (excitation at 355 nm and emission at 460 nm) was monitored for 30 min at room temperature with an automated microplate spectrofluorimeter (Biotek, Synergy 2). IC50 values were determined from plots of percent activity over compound concentration using the GraphPad Prism software if inhibition rates were larger than 20% at 10 μM concentration level.

SMILES | Inhibition rate [%] | IC50 [nM]
Cc1cc(C)cc(NC(=O)NN=Cc2ccc(O[C@H]3O[C@@H]4O[C@@]5(C)CC[C@H]6[C@H](C)CC[C@@H]([C@H]3C)[C@@]46OO5)cc2)c1 [Compound 10k, 4-[(10S)-Dihydroartemisinin-10-oxy]benzaldehyde N^4-(3,5-dimethylphenyl)semicarbazone] | 87.88 | 1030
Cc1ccc(C)c(NC(=S)NN=Cc2ccc(O[C@H]3OC4OC5(C)CCC6C(C)CCC(C3C)C46OO5)cc2)c1 (stereo partly drawn) [Compound 10d, 4-[(10S)-Dihydroartemisinin-10-oxy]benzaldehyde N^4-(2,5-dimethylphenyl)thiosemicarbazone] | 75.28 | 550
CCOc1ccc(NC(=O)NN=Cc2ccc(C(=O)O[C@@H]3OC4OC5(C)CCC6C(C)CCC(C3C)C46OO5)cc2)cc1 (stereo partly drawn) [Compound 12c, 4-[(10S)-Dihydroartemisinin-10-oxycarbonyl]benzaldehyde N^4-(4-ethoxyphenyl)semicarbazone] | 75.89 | 290
Cc1cc(C)cc(NC(=O)NN=Cc2ccc(C(=O)O[C@@H]3O[C@@H]4O[C@@]5(C)CC[C@H]6[C@H](C)CC[C@@H]([C@H]3C)[C@@]46OO5)cc2)c1 [Compound 12e, 4-[(10S)-Dihydroartemisinin-10-oxycarbonyl]benzaldehyde N^4-(3,5-dimethylphenyl)semicarbazone] | 71.62 | 570
CC1CCC2C(C)[C@@H](Oc3ccc(C=NNC(=S)Nc4ccc(F)cc4)cc3)OC3OC4(C)CCC1C32OO4 (stereo partly drawn) [Compound 10b, 4-[(10S)-Dihydroartemisinin-10-oxy]benzaldehyde N^4-(4-fluorophenyl)thiosemicarbazone] | 59.76 | 2170
CCOc1ccc(NC(=O)NN=Cc2ccc(O[C@H]3OC4OC5(C)CCC6C(C)CCC(C3C)C46OO5)cc2)cc1 (stereo partly drawn) [Compound 10i, 4-[(10S)-Dihydroartemisinin-10-oxy]benzaldehyde N^4-(4-ethoxyphenyl)semicarbazone] | 72.70 | 700
Cc1c(Cl)cccc1NC(=S)NN=Cc1ccc(O[C@H]2OC3OC4(C)CCC5C(C)CCC(C2C)C35OO4)cc1 (stereo partly drawn) [Compound 10f, 4-[(10S)-Dihydroartemisinin-10-oxy]benzaldehyde N^4-(3-chloro-2-methylphenyl)thiosemicarbazone] | 75.62 | 984
CC(C)C[C@H](NC(=O)[C@H]1O[C@@H]1C(=O)O)C(=O)NCCCCN=C(N)N (relative stereo) [Compound E-64, reference compound] | 100.0 | 19.7
Cc1cc(C)cc(NC(=S)NN=Cc2ccc(O[C@H]3O[C@@H]4O[C@@]5(C)CC[C@H]6[C@H](C)CC[C@@H]([C@H]3C)[C@@]46OO5)cc2)c1 [Compound 10e, 4-[(10S)-Dihydroartemisinin-10-oxy]benzaldehyde N^4-(3,5-dimethylphenyl)thiosemicarbazone] | 74.06 | 1350
Cc1ccc(C)c(NC(=O)NN=Cc2ccc(C(=O)O[C@@H]3OC4OC5(C)CCC6C(C)CCC(C3C)C46OO5)cc2)c1 (stereo partly drawn) [Compound 12d, 4-[(10S)-Dihydroartemisinin-10-oxycarbonyl]benzaldehyde N^4-(2,5-dimethylphenyl)semicarbazone] | 76.61 | 2960
Cc1c(Cl)cccc1NC(=O)NN=Cc1ccc(C(=O)O[C@@H]2OC3OC4(C)CCC5C(C)CCC(C2C)C35OO4)cc1 (stereo partly drawn) [Compound 12f, 4-[(10S)-Dihydroartemisinin-10-oxycarbonyl]benzaldehyde N^4-(3-chloro-2-methylphenyl)semicarbaz-one] | 74.67 | 10600
CC1CCC2C(C)[C@H](OC(=O)c3ccc(C=NNC(=O)Nc4ccc(F)cc4)cc3)OC3OC4(C)CCC1C32OO4 (stereo partly drawn) [Compound 12b, 4-[(10S)-Dihydroartemisinin-10-oxycarbonyl]benzaldehyde N^4-(4-fluorophenyl)semicarbazone] | 69.25 | 650
CC1CCC2C(C)[C@@H](Oc3ccc(C=NNC(=O)Nc4ccccc4F)cc3)OC3OC4(C)CCC1C32OO4 (stereo partly drawn) [Compound 10g, 4-[(10S)-Dihydroartemisinin-10-oxy]benzaldehyde N^4-(2-fluorophenyl)semicarbazone] | 76.74 | 2250
Cc1c(Cl)cccc1NC(=O)NN=Cc1ccc(O[C@H]2OC3OC4(C)CCC5C(C)CCC(C2C)C35OO4)cc1 (stereo partly drawn) [Compound 10l, 4-[(10S)-Dihydroartemisinin-10-oxy]benzaldehyde N^4-(3-chloro-2-methylphenyl)semicarbazone] | 81.82 | 2540
CC1CCC2C(C)[C@H](OC(=O)c3ccc(C=NNC(=O)Nc4ccccc4F)cc3)OC3OC4(C)CCC1C32OO4 (stereo partly drawn) [Compound 12a, 4-[(10S)-Dihydroartemisinin-10-oxycarbonyl]benzaldehyde N^4-(2-fluorophenyl)semicarbazone] | 79.32 | 470
CC1CCC2C(C)[C@@H](Oc3ccc(C=NNC(=O)Nc4ccc(F)cc4)cc3)OC3OC4(C)CCC1C32OO4 (stereo partly drawn) [Compound 10h, 4-[(10S)-Dihydroartemisinin-10-oxy]benzaldehyde N^4-(4-fluorophenyl)semicarbazone] | 84.60 | 1020
CC1CCC2C(C)[C@@H](Oc3ccc(C=NNC(=S)Nc4ccccc4F)cc3)OC3OC4(C)CCC1C32OO4 (stereo partly drawn) [Compound 10a, 4-[(10S)-Dihydroartemisinin-10-oxy]benzaldehyde N^4-(2-fluorophenyl)thiosemicarbazone] | 72.48 | 2510
Cc1ccc(C)c(NC(=O)NN=Cc2ccc(O[C@H]3OC4OC5(C)CCC6C(C)CCC(C3C)C46OO5)cc2)c1 (stereo partly drawn) [Compound 10j, 4-[(10S)-Dihydroartemisinin-10-oxy]benzaldehyde N^4-(2,5-dimethylphenyl)semicarbazone] | 59.01 | 2280
CCOc1ccc(NC(=S)NN=Cc2ccc(O[C@H]3OC4OC5(C)CCC6C(C)CCC(C3C)C46OO5)cc2)cc1 (stereo partly drawn) [Compound 10c, 4-[(10S)-Dihydroartemisinin-10-oxy]benzaldehyde N^4-(4-ethoxyphenyl)thiosemicarbazone] | 87.42 | 520
